ChEMBL document CHEMBL1138857, “Quinol-4-ones as steroid A-ring mimetics in nonsteroidal dissociated glucocorticoid agonists” (J Med Chem, 2006)

Experiments:
[1] = biological target: T1, Mineralocorticoid receptor (Homo sapiens, UniProt P08235); experiment: Inhibition of tetramethylrhodamine labeled dexamethasone binding to MR by FP assay
T1 sequence (P08235 whole entry): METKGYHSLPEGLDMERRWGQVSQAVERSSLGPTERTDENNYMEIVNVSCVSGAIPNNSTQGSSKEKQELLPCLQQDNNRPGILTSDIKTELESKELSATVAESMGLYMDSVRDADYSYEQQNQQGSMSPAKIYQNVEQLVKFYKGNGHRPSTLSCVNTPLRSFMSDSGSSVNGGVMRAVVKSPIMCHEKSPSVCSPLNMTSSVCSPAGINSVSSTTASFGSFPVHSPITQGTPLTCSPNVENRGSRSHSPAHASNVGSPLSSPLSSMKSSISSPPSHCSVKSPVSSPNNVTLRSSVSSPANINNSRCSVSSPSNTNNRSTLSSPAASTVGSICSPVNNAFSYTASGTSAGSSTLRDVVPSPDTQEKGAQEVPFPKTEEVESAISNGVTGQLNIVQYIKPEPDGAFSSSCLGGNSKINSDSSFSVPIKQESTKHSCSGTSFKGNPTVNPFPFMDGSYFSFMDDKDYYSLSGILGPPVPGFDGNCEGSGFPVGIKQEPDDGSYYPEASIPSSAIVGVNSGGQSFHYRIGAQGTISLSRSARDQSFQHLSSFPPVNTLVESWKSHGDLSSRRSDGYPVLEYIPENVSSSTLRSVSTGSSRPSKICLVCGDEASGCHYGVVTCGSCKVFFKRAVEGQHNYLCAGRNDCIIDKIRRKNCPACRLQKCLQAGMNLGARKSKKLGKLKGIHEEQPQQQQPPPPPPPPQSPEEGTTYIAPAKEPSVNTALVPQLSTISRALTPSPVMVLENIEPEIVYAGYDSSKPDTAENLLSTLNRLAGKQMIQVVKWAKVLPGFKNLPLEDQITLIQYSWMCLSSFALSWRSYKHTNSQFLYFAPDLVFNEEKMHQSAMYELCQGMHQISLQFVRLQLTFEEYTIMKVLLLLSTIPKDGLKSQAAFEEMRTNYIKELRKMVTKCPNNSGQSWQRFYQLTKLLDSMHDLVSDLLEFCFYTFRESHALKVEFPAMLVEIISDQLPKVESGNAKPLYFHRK

Progesterone receptor = biological target: T2, Progesterone receptor (Homo sapiens, UniProt P06401); experiment: Inhibition of tetramethylrhodamine labeled RU486 binding to PR by FP assay
T2 sequence (P06401 whole entry): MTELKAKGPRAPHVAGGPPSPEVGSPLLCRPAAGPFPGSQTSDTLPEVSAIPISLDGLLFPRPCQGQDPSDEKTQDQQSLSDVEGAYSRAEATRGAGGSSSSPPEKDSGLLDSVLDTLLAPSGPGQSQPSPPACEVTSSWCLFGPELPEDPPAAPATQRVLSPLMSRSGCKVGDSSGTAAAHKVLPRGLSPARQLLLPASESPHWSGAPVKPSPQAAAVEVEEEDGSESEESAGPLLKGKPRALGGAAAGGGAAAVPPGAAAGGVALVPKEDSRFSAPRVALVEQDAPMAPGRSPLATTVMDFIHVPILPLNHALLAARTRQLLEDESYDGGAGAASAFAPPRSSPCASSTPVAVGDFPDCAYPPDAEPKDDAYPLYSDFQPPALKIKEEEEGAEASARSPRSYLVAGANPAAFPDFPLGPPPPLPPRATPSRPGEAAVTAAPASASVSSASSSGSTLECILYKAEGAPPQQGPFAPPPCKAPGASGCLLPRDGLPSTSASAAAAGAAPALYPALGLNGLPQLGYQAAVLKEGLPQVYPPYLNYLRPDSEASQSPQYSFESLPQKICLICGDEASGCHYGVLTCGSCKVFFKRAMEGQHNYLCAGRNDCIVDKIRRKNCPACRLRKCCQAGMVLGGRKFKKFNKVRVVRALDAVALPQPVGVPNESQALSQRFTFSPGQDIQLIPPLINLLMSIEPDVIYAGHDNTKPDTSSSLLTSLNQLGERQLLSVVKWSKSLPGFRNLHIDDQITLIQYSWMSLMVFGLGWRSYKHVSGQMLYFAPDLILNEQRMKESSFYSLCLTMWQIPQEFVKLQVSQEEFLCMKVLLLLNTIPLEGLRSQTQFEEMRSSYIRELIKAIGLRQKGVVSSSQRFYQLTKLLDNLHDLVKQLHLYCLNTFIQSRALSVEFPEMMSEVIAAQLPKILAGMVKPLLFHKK

Homo sapiens = organism: Homo sapiens; experiment: Ratio of IC50 for GR to PR
HFF [2] = experiment: Inhibition of IL1-stimulated IL6 production in HFF cells; type: functional, cell-based; conditions: Homo sapiens
HFF [3] = experiment: Inhibition of IL1-stimulated IL6 production in HFF cells relative to Dexamethasone; type: functional, Homo sapiens
Glucocorticoid receptor = biological target: T3, Glucocorticoid receptor (Homo sapiens, UniProt P04150)
T3 sequence (P04150 whole entry): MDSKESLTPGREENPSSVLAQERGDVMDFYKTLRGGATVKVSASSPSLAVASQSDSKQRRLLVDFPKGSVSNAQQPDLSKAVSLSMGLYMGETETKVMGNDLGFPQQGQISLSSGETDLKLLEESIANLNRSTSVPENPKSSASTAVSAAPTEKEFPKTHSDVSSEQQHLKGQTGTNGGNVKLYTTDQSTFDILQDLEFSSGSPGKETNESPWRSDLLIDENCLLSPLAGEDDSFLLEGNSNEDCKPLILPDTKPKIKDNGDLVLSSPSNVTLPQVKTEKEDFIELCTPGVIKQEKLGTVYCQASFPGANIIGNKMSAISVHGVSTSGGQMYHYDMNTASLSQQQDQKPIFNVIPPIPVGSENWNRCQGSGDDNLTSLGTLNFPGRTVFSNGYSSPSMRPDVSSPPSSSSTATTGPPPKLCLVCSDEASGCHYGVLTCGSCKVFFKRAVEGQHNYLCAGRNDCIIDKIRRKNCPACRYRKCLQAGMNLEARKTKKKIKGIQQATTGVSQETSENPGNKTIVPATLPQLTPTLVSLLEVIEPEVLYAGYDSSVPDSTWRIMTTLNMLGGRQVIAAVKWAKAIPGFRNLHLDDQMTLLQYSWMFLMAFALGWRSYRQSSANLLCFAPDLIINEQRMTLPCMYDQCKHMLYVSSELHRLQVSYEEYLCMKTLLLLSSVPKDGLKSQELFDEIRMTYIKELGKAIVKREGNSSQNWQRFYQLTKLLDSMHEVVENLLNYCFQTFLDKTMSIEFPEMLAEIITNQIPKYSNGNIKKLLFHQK

HFF [4] = experiment: Induction of aromatase activity in HFF cells assessed as production of beta estradiol by aromatase assay relative to Dexamethasone; type: functional, Homo sapiens
HFF [5] = experiment: Induction of aromatase activity in HFF cells assessed as production of beta estradiol by aromatase assay; type: functional, cell-based; conditions: Homo sapiens
HeLa [6] = experiment: Activation of MMTV in HeLa cells measured by luciferase activity relative to Dexamethasone; type: functional, Homo sapiens
HeLa [7] = experiment: Activation of MMTV in HeLa cells measured by luciferase activity; type: functional, cell-based; conditions: Homo sapiens
Mus musculus [8] = experiment: Inhibition of LPS-stimulated TNFalpha production in BALB/c mouse at 3 mg/kg, po; conditions: read-out: Inhibition
Mus musculus [9] = experiment: Inhibition of LPS-stimulated TNFalpha production in BALB/c mouse at 10 mg/kg, po; type: functional

| Structure (SMILES) | IC50 [1] | IC50 (Progesterone receptor) | Ratio IC50 (Homo sapiens) | IC50 (HFF [2]) | Efficacy (HFF [3]) | IC50 (Glucocorticoid receptor) | Efficacy (HFF [4]) | EC50 (HFF [5]) | Efficacy (HeLa [6]) | EC50 (HeLa [7]) | inhibition in vivo at 3 mg/kg (Mus musculus [8]) | inhibition in vivo at 10 mg/kg (Mus musculus [9]) |
| --- | --- | --- | --- | --- | --- | --- | --- | --- | --- | --- | --- | --- |
| COc1ccc(F)cc1C(C)(C)CC(O)(CN1CCOc2ccccc21)C(F)(F)F (configuration not stated) | 310 nM | 640 nM | < 50 | 600 nM | 25% | 15 nM |  |  |  |  |  |  |
| COc1ccc(F)cc1C(C)(C)CC(O)(CN1C[C@@H](C)C(=O)[C@@H](C)C1)C(F)(F)F (some centres not stated) | 430 nM | > 2000 nM | > 75 | 75 nM | 89% | 10 nM | 93% | 240 nM |  |  |  |  |
| C[C@]12C=CC(=O)C=C1CC[C@@H]1[C@@H]2[C@@H](O)C[C@@]2(C)[C@H]1CC[C@]2(O)C(=O)CO [PREDNISOLONE] |  |  |  | 6.6 nM | 96% |  | 92% | 19 nM | 91% | 16 nM | 84% |  |
| CC(C)(CC(O)(Cn1ccc(=O)c2ccccc21)C(F)(F)F)c1cc(F)ccc1O (configuration not stated) | 580 nM | 960 nM |  | 6 nM | 92% | 5 nM | 74% | 14 nM | 20% | 37 nM |  | 55% |
| Cc1ccccc1C(C)(C)CC(O)(Cn1ccc(=O)c2ccccc21)C(F)(F)F (configuration not stated) | 150 nM | 240 nM |  | 61 nM | 63% | 22 nM | 29% | > 2000 nM | 1% | > 2000 nM |  | 36% |
| Cc1ccc(F)cc1C(C)(C)CC(O)(Cn1ccc(=O)c2ccccc21)C(F)(F)F (configuration not stated) | 120 nM | 240 nM |  | 34 nM | 66% | 10 nM | 22% |  | 2% | > 2000 nM |  | 50% |
| COc1ccc(F)cc1C(C)(C)CC(O)(CN1C[C@@H](C)O[C@@H](C)C1)C(F)(F)F (some centres not stated) | 450 nM | > 2000 nM | > 75 | 270 nM | 72% | 38 nM |  |  |  |  |  |  |
| COc1ccc(F)cc1C(C)(C)CC(O)(CN1CCC(=O)c2ccccc21)C(F)(F)F (configuration not stated) | 130 nM | 90 nM | < 50 | 110 nM | 72% | 4 nM |  |  |  |  |  |  |
| COc1ccc(F)cc1C(C)(C)CC(O)(Cn1ccc(=O)c2ccccc21)C(F)(F)F (configuration not stated) | 120 nM | 475 nM | < 50 | 27 nM | 82% | 10 nM | 67% | 220 nM | 10% | > 2000 nM |  |  |
